From patent publication US9675627B2, “Dosing regimens for treating and/or preventing cerebral amyloidoses” (Amicus Therapeutics, Inc., priority 2014, dated 2017)

Tests used:
[1] = system: Dutch APP^E693Q transgenic mice; experiment: Contextual and cued fear conditioning; type: in vivo; conditions: 3-month course, 3-100 mg/kg
Procedure: (§1) The generation and characterization of Dutch APPE693Q mice transgenic mice is described in Gandy, S., et al. Days to criterion as an indicator of toxicity associated with human Alzheimer amyloid-beta oligomers. Annals of neurology 68, 220-230 (2010). 3-month-old male Dutch APP^E693Q mice transgenic mice were orally gavaged 5 days/week with either vehicle (water) (n=15) or 3, 10, 30 or 100 mg/kg AdDNJ for 3 months (n=13). All animal studies were approved and conducted in accordance with the Institutional Animal Care and Usage Committee. Mice were kept in a pathogen-free environment, on a 12-hour light/dark cycle and given ad libitum access to food and water. At 6 month of age treatment groups, and a 3-month-old untreated baseline group (n=15), were cognitively assessed in the NOR, EPM and FC tests. 48 hours following the final dose mice were perfused with ice-cold 1×PBS. The brain was removed and dissected into two hemispheres. […]
Contextual and cued fear conditioning was assessed using the ANY-Maze fear conditioning system (Stoelting Co., Wood Dale, Ill., USA) as previously described in Steele, J. W., et al. Early fear memory defects are associated with altered synaptic plasticity and molecular architecture in the TgCRND8 Alzheimer's disease mouse model. […]

[2] = system: ganglioside-bound Aβ (GAβ); experiment: GAβ immunohistochemistry (clone 4396C); type: in vivo, Dutch APP^E693Q transgenic mice; conditions: 100 mg/kg, 3 months
Procedure: (§2) The generation and characterization of Dutch APPE693Q mice transgenic mice is described in Gandy, S., et al. Days to criterion as an indicator of toxicity associated with human Alzheimer amyloid-beta oligomers. Annals of neurology 68, 220-230 (2010). 3-month-old male Dutch APP^E693Q mice transgenic mice were orally gavaged 5 days/week with either vehicle (water) (n=15) or 3, 10, 30 or 100 mg/kg AdDNJ for 3 months (n=13). All animal studies were approved and conducted in accordance with the Institutional Animal Care and Usage Committee. Mice were kept in a pathogen-free environment, on a 12-hour light/dark cycle and given ad libitum access to food and water. At 6 month of age treatment groups, and a 3-month-old untreated baseline group (n=15), were cognitively assessed in the NOR, EPM and FC tests. 48 hours following the final dose mice were perfused with ice-cold 1×PBS. The brain was removed and dissected into two hemispheres. One half was snap-frozen on dry ice and stored at −80° C. for biochemistry; the other half was post-fixed in 4% paraformaldehyde then sagittally sectioned on a vibratome into 30 μm sections and stored at 4° C. in storage buffer until histological analyses.
Aβ was assessed via free-floating immunohistochemistry using mAb 6E10 (1:1000, Covance) as previously described20. GAβ was assessed via free-floating immunohistochemistry using mouse anti-GAβ, clone 4396C (1:100), a gift from Dr. Katsuhiko Yanagisawa as previously described19. Images were captured on an Olympus BX61 upright microscope with an attached Olympus DP71 camera. Integrated density of GAβ staining was measured using Image J (National Institute of Health, Bethesda, Md.).

[3] = system: Dutch APP^E693Q transgenic mice; experiment: Novel object recognition (NOR); type: in vivo; conditions: 3-month course, higher doses (30 or 100 mg/kg)
Procedure: as §2, with “analyses. […]” for “analyses.”
On day 1, the mouse was placed in the NOR arena (20 cm diameter) for 10 min to acclimatize. […] The duration spent exploring the objects was then measured using ANY-maze (Stoelting, Wood Dale, Ill.).

[4] = system: β-hex
Procedure: AdDNJ selectivity was assessed by measuring its effect on the enzymatic activity of hexosaminadase (Total Hex, Hex A/S and Hex B), and 3 other lysosomal hydrolases: alpha-galactosidase, beta-galactosidase and glucocerebrosidase. For enzymatic assays, wild-type fibroblast (CRL2076) pellets (˜2.5e6 cells/pellet) were lysed with 200 μl of pH 5 lysis buffer (Phosphate/citrate, 0.25% tauorocholate, 0.1% TX100). Fibroblast lysates were diluted 1:200 in pH 5 reaction buffer (lysis buffer without TX100) containing 2 mM of the appropriate 4-methylumbelliferyl (4-MU) substrate, incubated for 1 h at 37° C. and stopped with 0.5 M sodium carbonate. Released 4MU was measured using a Perkin Elmer Victor 5× fluorescence plate reader (ex355/em460). Measurement of Total Hex activity was carried out using 4-methylumbelliferyl beta-N-acetylglucosaminide (MUG); for Hex A/S activity 4MU-beta-N-acetylglucosamine-6-sulfate (MUGS); Hex B activity was calculated as the difference between Total Hex and Hex A/S activity; for alpha-galactosidase activity […]; for beta-galactosidase activity 4-MU beta-D-galactoside; for glucocerebrosidase activity 4MU beta-D-glucopyranoside. As positive controls for enzymatic inhibition 100 μM of the following compounds were used: for alpha-galactosidase, 1-deoxygalactonojirimycin; for beta-galactosidase, N-Butyl-1-deoxygalactonojirimycin; for glucocerebrosidase, isofagamine. For beta-hexosaminadase enhancement assays, fibroblasts were exposed to 0, 95, 390 and 780 nM of AdDNJ for 5 days followed by beta-hexosamindase activity measurement. Enzymatic activity measurements were done in duplicate.
(§3) 5-week-old C57BL/J6 mice (n=5 mice/group, Taconic Farms, Germantown, N.Y.) were administered vehicle (water) or AdDNJ (30, 100 or 300 mg/kg) via oral gavage every day for 14 days. On day 15 mice were euthanized and brain/plasma collected for analysis. For single dose PK studies, 5-week-old C57BL/J6 mice (n=5 mice/group, Taconic Farms, Germantown, N.Y.) received a single 100 mg/kg dose (oral gavage) of AdDNJ and groups euthanized at 0.5, 1, 2, 4, 8, 16, 24 and 48 hours post dose for brain and plasma analysis. Whole brain tissue (10-15 mg) was homogenized in 1 mL of pH 5 lysis buffer for measuring beta-hexosaminidase activity as described above. AdDNJ levels were measured in plasma and brain samples using LC-MS/MS.

[5] = system: Dutch APP^E693Q transgenic mice; experiment: Elevated plus maze (EPM); type: in vivo; conditions: 3-month course, 3, 10, 30 or 100 mg/kg
Procedure: as §1
The maze in the configuration of a+ and comprised two open arms (35×5×0 cm) across from each other and perpendicular to two closed arms (35×5×16 cm) with a central neutral zone (Stoelting, Wood Dale, Ill.). […] Each trial was videotaped overhead and scored for amount of time spent in the open and closed arms using ANY-maze (Stoelting, Wood Dale, Ill.). […]

[6] = Single dose pharmacokinetic study (oral gavage), plasma and brain LC-MS/MS; type: in vivo, C57BL/J6 mice
Procedure: as §3

[7] = daily gavage 14 days at 30, 100 and 300 mg/kg

**Q.** For `CC(=O)NC1CNC(CO)[C@@H](O)C1O` (stereo partly shown) [AdDNJ, 2-acetamido-1,2-dideoxynojirimycin], which “contextual or cued fear conditioning” value [1] is on record?
**A.** no effect

**Q.** And the “GAβ immunoreactivity, CA1 region of the hippocampus” value [2]?
**A.** did not reach significance

**Q.** And the “GAβ immunoreactivity, lateral entorhinal cortex” value [2]?
**A.** trend toward reduction

**Q.** And the “GAβ immunoreactivity, perirhinal cortex” value [2]?
**A.** striking quantitative reduction

**Q.** And the “GAβ immunoreactivity, subiculum” value [2]?
**A.** striking quantitative reduction

**Q.** What about the “GAβ immunoreactivity, visual cortex” value [2] of the same compound?
**A.** did not reach significance

**Q.** What about the “learning behavior in NOR test” value [3] of the same compound?
**A.** protection from the typical aging-related learning behavior deficits

**Q.** What about the “time of maximum increase in β-hex levels” value ([4]; daily gavage 30, 100, 300 mg/kg) of the same compound?
**A.** ~5 days

**Q.** And the “GM2 levels in whole brain extracts” value [4, 7]?
**A.** without increasing GM2 levels

**Q.** And the “brain β-hex levels” value [4, 7]?
**A.** dose-dependent increase

**Q.** What about the “half-life of elevated β-hex levels in the brain” value ([4]; data not shown) of the same compound?
**A.** ~48 h

**Q.** And the “anxiety in elevated plus maze” value [5]?
**A.** reduced anxiety at all doses tested

**Q.** And the bioavailability ([6]; qualitative statement)?
**A.** good bioavailability

**Q.** And the “AdDNJ level reached in brain” value ([6]; single 100 mg/kg dose)?
**A.** > 342 nM

**Q.** And the “blood brain barrier penetration” value ([6]; single 100 mg/kg oral gavage)?
**A.** crossed the BBB

**Q.** And the “time for brain level to drop below Ki for β-hex at pH 5 (253 nM)” value ([6]; single 100 mg/kg oral gavage)?
**A.** ≤ 16 hours
